The source of these data is patent US20230012374A1, “PROCESS FOR PRODUCING HERBICIDE AND INTERMEDIATE THEREOF” (KUMIAI CHEMICAL INDUSTRY CO., LTD., priority 2019, published 2023).

The nature of this data set: Bulk specific gravity of pyroxasulfone crystals. It counts as physicochemical. The conditions noted are these: crystal of pyroxasulfone.

Turning to `Cn1nc(C(F)(F)F)c(CS(=O)(=O)C2=NOC(C)(C)C2)c1OC(F)F` [Example 3-1, 3-[(5-difluoromethoxy-1-methyl-3-trifluoromethylpyrazol-4-yl)methylsulfonyl]-4,5-dihydro-5,5-dimethylisoxazole], the bulk specific gravity was determined as 1.04 g/mL.

As for `Cn1nc(C(F)(F)F)c(CS(=O)(=O)C2=NOC(C)(C)C2)c1OC(F)F` [Comparative Example 3-1, 3-[(5-difluoromethoxy-1-methyl-3-trifluoromethylpyrazol-4-yl)methylsulfonyl]-4,5-dihydro-5,5-dimethylisoxazole], the bulk specific gravity was 0.53 g/mL.
